The values that follow are results of earlier work, collected in patent publication US20100095963A1, “PHARMACEUTICAL COMPOSITIONS” (Schering Corporation, priority 2002, published 2010).

Test in data set [1]: not given
This is another data set of the same source.

SMILES strings stand for the structures.

For the molecule `C[C@@H]1C[C@H]2[C@@H]3CCC4=CC(=O)C=C[C@]4(C)[C@@]3(Cl)[C@@H](O)C[C@]2(C)[C@@]1(OC(=O)c1ccco1)C(=O)CCl` [Mometasone furoate, 9,21-Dichloro-11(beta),17-dihydroxy-16(alpha)-methylpregna-1,4-diene-3,20-dione 17-(2 furoate)], the solubility in acetone entry (acetone) is reported as “soluble”. For the setting “chloroform”, the solubility in chloroform result is “soluble”. Further, the solubility in ethanol result (ethanol) is listed as “slightly soluble”. Further, the solubility in isopropanol result (isopropanol) is “slightly soluble”. In addition, the solubility in methanol entry (methanol) is reported as “slightly soluble”. Also, the solubility in tetrahydrofuran entry (tetrahydrofuran) is listed as “freely soluble”. For the same molecule, the solubility in water result (water) is “practically insoluble”. Besides, in data set [1], the “partition coefficient between octanol and water” value is “greater than 5000”.
